# Assay results taken from a melting point compilation (Tetko et al.; mined from patent text by program, amines drawn as free bases though some values may be those of a salt).
row,melting point,SMILES
1,36 to 36.5 °C,CC(C)c1cccc2cc3ccccc3cc12
2,139 to 141 °C,CC(C)Oc1ccc2c(O)c(C(=O)O)nc(Cl)c2c1
3,196 to 197 °C,Nc1ccc(Oc2cc3ccccc3cc2Oc2ccc(N)c(O)c2)cc1O
4,93.9 to 94.6 °C,COC(=O)c1cc(CBr)cc(C2(C#N)CCC2)c1
5,56.5 °C,CC(C)(C)C(=O)NCc1cc(-c2ccc(Cl)c(Cl)c2)n(Cc2ccc(Cl)c(Cl)c2)n1
6,150 to 152 °C,Cc1ccc(S(=O)(=O)OCC2CN(c3cc(F)c(N4CCN(C(=O)OC(C)(C)C)CC4)c(F)c3)C(=O)O2)cc1 (centres undefined)
7,97 to 98 °C,CS(=O)(=O)c1ccc(Oc2cc(OCc3ccccc3)c3[nH]c(C4=NCC(CCO)S4)cc3c2)cc1 (centres undefined)
8,215 °C,COc1cc(C(=O)O)ccc1Cc1c(Cl)n(C)c2ccc(CCNC(=O)N(C)C)cc12
9,153 °C,O=C(c1cc(Cl)ccc1O)c1cc(Cl)cc([N+](=O)[O-])c1O
10,153 to 154 °C,CC(C)(C)c1ccc(NC(=O)N2CCC3(CC2)CC(CCc2ccccc2)=NO3)cc1
11,168 to 170 °C,OCCOCn1c(Cl)nc2c(Cl)c(Cl)c(Cl)c(Cl)c21
12,133 °C,Cc1ccccc1[C@H]1CC[C@@H](c2ccccc2)N1C(=O)CNC(=O)Nc1cccc(CC(=O)O)c1 (racemic)
13,99 °C,COC(=O)CCCc1cc2nc(Cl)ccc2n1S(=O)(=O)c1ccc(C(F)(F)F)cc1
14,152 °C,CON=C(N)Nc1nccc(C)n1
15,124 °C,CC(=O)OC1CSC(Oc2cncc(-c3ccc(C)o3)c2)C(OC(C)=O)C1OC(C)=O (centres undefined)
16,181 to 183 °C,CC(=O)Nc1cccc(-n2ccnc2)c1
17,236 to 238 °C,CCNC1=NS(=O)(=O)c2cccc(F)c21
18,122 to 124 °C,CCOC(=O)Cc1ccc(NC(=O)C(COc2ccccc2)NS(=O)(=O)c2ccc(F)cc2)cc1 (racemic)
19,140 to 141 °C,Nc1cc(Oc2ccc3c(c2)OCCN3)ncn1
20,209 to 210 °C,COP(=O)(Cc1ccc(NC(=O)/C=C/c2cnn(C)c2-c2ccc(F)cc2)cc1)OC
21,174 to 175 °C,COc1cc(-c2ccccc2)c(C=O)cc1CC(=O)O
22,168 to 169 °C,CCC(CC)n1nnc2c(Nc3c(Cl)cc(OC)cc3OC)nc(C)cc21
23,68 to 70 °C,CCCCCCNc1ccncc1

row,melting point,SMILES
1,117 to 119 °C,NS(=O)(=O)c1ccccc1OC(F)(F)C(F)F
2,98 to 100 °C,C#CCN=c1sc2cc(OC(F)(F)F)ccc2n1CC(=O)c1ccc(C)cc1
3,110 to 112 °C,CCCc1nc(NCc2ccco2)nc(Nc2cccc(C(F)(F)F)c2)n1
4,150 to 151 °C,Cc1c(C)c2c(c(Br)c1NC(=O)CC(C)(C)C)C(c1ccc(C(C)C)cc1)CO2 (centres undefined)
5,106 °C,O=C(NO)[C@H](CNS(=O)(=O)c1ccc(OCc2ccc3ccccc3c2)cc1)N1CCCCC1
6,187 °C,CC1(C)CCC(C(=O)N2CCC[C@H]2C(=O)O)C1SC(=O)c1ccccc1 (some centres undefined)
7,120 to 122 °C,COc1cc(Cl)nnc1NS(=O)(=O)c1ccc(Cl)s1
8,115 to 117 °C,O=C(NCc1ccccc1)c1sc2ccccc2c1Br
9,73 to 75 °C,CCOC(=O)[C@H](CCc1ccccc1)N(C(=O)OCC(Cl)(Cl)Cl)[C@@H](C)C(=O)O
10,207 to 208 °C,O=c1[nH]c2cscc2c(=O)n1CCN1CCN(c2cccc(Cl)c2)CC1
11,68 °C,CCN(CC)c1nc(N)c(SC)c(Cl)n1
12,163 to 165 °C,CC1(N)CN=CC=C1N (centres undefined)
13,178 °C,CC(Oc1cccc(OCc2ccc3ccc(Br)cc3n2)c1)C(=O)O (centres undefined)
14,123 to 124 °C,Cc1cc(OC2CCN(CCNC(=O)c3ccc(S(C)(=O)=O)cc3)CC2)ccc1Cl
15,219 to 220 °C,CC(=O)Nc1nc2c(Oc3cc(-c4ccc(C(F)(F)F)cc4)ncn3)cccc2s1
16,71 to 72 °C,CC(C)Sc1c(C2=NC(C)(C)CO2)oc(Br)c1Br
17,202 to 204 °C,CC1=CCC(=Nc2cc([N+](=O)[O-])ccc2O)S1
18,212 to 213 °C,NC(=O)NN=Cc1ccc(Oc2ccncc2)cc1
19,158 °C,CCOCCOc1cc(C(O)C#Cc2ccc(C(=O)O)cc2)cc2c1C(C)(C)CCC2(C)C (centres undefined)
20,170 to 172 °C,O=C1C(=O)c2ccccc2C2=C1SCC1(CCN(Cc3ccccc3)CC1)O2
21,120 to 122 °C,CCOC(=O)C(C)Oc1ccc(-c2nc(-c3ccc(C)cc3C)nc(-c3ccc(C)cc3C)n2)c(O)c1 (centres undefined)
22,193 to 197 °C,COc1ccc2nc(SC(C#N)c3ncc(C)c(OC)c3C)[nH]c2c1 (centres undefined)
23,60 °C,CCCCCCCCC(CCCCCCCC)n1c2ccsc2c2sccc21

row,melting point,SMILES
1,139 °C,CC1Oc2cc(N)c([N+](=O)[O-])cc2O1 (centres undefined)
2,179 to 180 °C,COC(=O)C(=CNc1ccsc1C(=O)O)SC
3,146 to 147 °C,NS(=O)(=O)Oc1cc(Cl)cc(Cl)c1
4,205 to 208 °C,COc1ccc(NC(=O)Nc2ccc(Cl)c(Cl)c2)cc1NS(=O)(=O)c1cccs1
5,254 to 255 °C,CC1(C)CCC(C)(C)c2cc3cc(-c4ccc(C(=O)O)s4)ccc3cc21
6,170 °C,COc1ccccc1C1(NCCC(=O)OC(C)(C)C)C(=O)Nc2ccc(Cl)cc21 (centres undefined)
7,140 to 141 °C,CC1(c2ccccc2)CN(c2ccnc(N)c2)C(=O)O1 (centres undefined)
8,226 °C,COc1ccc(-n2c(CC(=O)O)c(C(=O)O)c3cc(Oc4ccc(OC(C)C)cc4)ccc32)cc1
9,199 °C,O=C(c1sc2c(ccc(=O)n2-c2ccccc2)c1Br)N1CC(O)C1
10,204 to 206 °C,O=c1[nH]ncc2[nH]c(-c3ccc(OC(F)F)c(OC4CC4)c3)c(CC3CC3)c12
11,82 to 83 °C,CCCCNc1c(C(=O)OCC)cnc2c1cnn2CC
12,112 to 113 °C,CCOP(=O)(/C=C/c1cn(-c2ccccc2)nc1OCc1ccc(OCc2nc(-c3cccc(C(=O)OC)c3)oc2C)c(OC)c1)OCC
13,108 to 112 °C,CCCc1c(OCCCCCC(=O)c2c(C)c(C)c(OC)c(OC)c2C)ccc(C(=O)O)c1O
14,246 °C,O=c1cc(-c2nnn[nH]2)oc2cc(COc3cccc(OCc4ccc5ccccc5n4)c3)ccc12
15,130 to 138 °C,COc1cccc2c(CCN(CC3CC3)C3COc4c(F)ccc(C(N)=O)c4C3)coc12 (centres undefined)
16,130 to 131 °C,Clc1cc(N2CCC3(CC2)OCCO3)nc(N2CCC3(CC2)OCCO3)n1
17,228 to 233 °C,Cc1cc2c(cc1C)C(c1ccccc1)(C(F)(F)C(F)(F)F)c1cc3c(cc1O2)Oc1cc(C)c(C)cc1C3(c1ccccc1)C(F)(F)C(F)(F)F (centres undefined)
18,89 °C,CC1(C)C2CCC1(CNC(=O)CBr)CC2
19,269 to 273 °C,CNc1nccc2c1nnn2Cc1ccccc1
20,113 to 115 °C,O=C(/C=C/C=C(c1ccccc1)c1ccccc1)Oc1ccc([N+](=O)[O-])cc1
21,160 to 162 °C,COc1ccc(-c2[nH]cnc2-c2cc(OC)c(Br)c(OC)c2)cc1N
22,178 to 180 °C,COc1ccc(Br)cc1CC1CCCn2c1nc(-c1ccncn1)cc2=O (racemic)
23,99 to 100 °C,Clc1ccc(C2CCc3cc(Cl)ccc3O2)cc1 (centres undefined)

row,melting point,SMILES
1,171 to 172 °C,CC(C)(C)OC(=O)N1C(=O)C2(COc3cc4c(cc32)OCCO4)c2ccccc21 (centres undefined)
2,165 to 172 °C,CC(C)Cn1c(CN2CCOCC2)nc2c(N)nc3c(c21)CCCC3
3,80 to 81 °C,CCCCS(=O)(=O)Nc1ccc(I)cc1
4,70 °C,O=S(=O)(c1ccc(Br)s1)N(CCO)CCO
5,171 to 172 °C,CC(C(=O)NO)C(=O)N(c1ccccc1)c1ccccc1 (centres undefined)
6,125 to 127 °C,c1ccc2c(c1)CCN(CCSc1ccnc(CSc3nc4ccccc4[nH]3)c1)C2
7,> 275 °C,CNc1nc(-c2ccccc2)c(-c2nc3ccccc3c(=O)n2-c2ccc(Cl)cc2)s1
8,194 °C,CC(C)(C)C(=O)N[C@H]1CC[C@H](CCN2CCN(c3nccc4c3OCC4)CC2)CC1
9,138 °C,CC(=O)NCC1CCN(CC2COc3ccccc3O2)CC1 (centres undefined)
10,95.5 to 96.5 °C,CCCCCCCCCCCCCCCCNC(=O)CC#N
11,84 to 85 °C,Cc1cc(C2=NOC(c3cccc(C(F)(F)F)c3)(C(F)(F)F)C2)ccc1Br (centres undefined)
12,152 to 154 °C,Cc1ccc(Nc2c(F)cccc2Cl)c(CC(=O)O)c1
13,136 to 137 °C,CCOC(NC(=O)c1cccc(Cl)c1)C(N)=S (centres undefined)
14,175 to 177 °C,CCCCCCCCCCCC#Cc1cnccc1C=C(C(=O)O)C(=O)O
15,178 to 180 °C,CNCc1ccc(-c2cc3c4c(ccn4C(=O)CNC3)c2)cc1
16,101 to 103 °C,CCOc1ccc(OCC(F)(F)F)cc1C(=O)O
17,65.5 to 67.5 °C,COC(=O)c1ccc(C(=O)C=C(c2cc(Cl)cc(Cl)c2)C(F)(F)F)cc1
18,240 to 242 °C,CC1NC(=O)NN=C1c1ccc2c(c1)CCC(=O)N2C (centres undefined)
19,80 °C,Cc1cc(-n2ccnc2)c2cccc(OCc3c(Cl)ccc(S(=O)(=O)N4CCC[C@H]4C(=O)NCCCN(C)C)c3Cl)c2n1
20,238 to 239 °C,CCOc1nc2ccc(Cl)cc2c(-c2ccccc2)c1NC(=O)Nc1ccc(F)cc1F
21,330 °C,CN1CCN(N=C2CC(c3ccc(C(F)(F)F)cc3)Cc3[nH]c4ccc(Cl)cc4c(=O)c32)CC1 (centres undefined)
22,233 to 235 °C,NS(=O)(=O)c1cc2cc(O)c(O)cc2s1
23,135 to 138 °C,CC(C)(C)NCCOp1oc2c(C(C)(C)C)cc(C(C)(C)C)cc2c2cc(C(C)(C)C)cc(C(C)(C)C)c2o1

row,SMILES,melting point
1,CC1(O)CCC2(C)C(CCC3C2CCC2(C)C3CCC2[N+](=O)[O-])C1 (centres undefined),211 to 213 °C
2,CC[C@]12CC[C@H]3[C@@H](CC(=C(Br)Br)C4=CC(=O)CC[C@@H]43)[C@@H]1CCC2=O,149 to 153 °C
3,CCN(CC)C(=O)Nc1ccc2c(c1)C(c1ccccc1F)=NCC(=O)N2C,138 to 139 °C
4,COc1ccccc1OP(=O)(CN(CC#N)N=O)Oc1ccccc1OC,83 to 85 °C
5,Cc1c(O)cc2c(c1Cl)CCC2(C)C,109 to 110 °C
6,Cc1ccnc2c1N=C(N)c1cccnc1N2C1CC1,242 to 244 °C
7,O=C1c2c(Cl)cccc2-n2cnc(-c3noc(C(F)(F)F)n3)c2[C@@H]2CCCN12,220 to 221 °C
